US9732311B2, “Alcoholic compositions having a lowered risk of acetaldehydemia” (Deuteria Beverages, LLC, priority 2009, dated 2017)
Read-outs that look alike come from different tables or passages of the source.

Key:
sheep liver ALDH = conditions: literature (Hart and Dickinson 1978); cited from earlier work
[1] = oral
Experimental: The subject was a person, 154 kg, with no known abnormalities of ethanol metabolism. Experiments were conducted after an overnight fast. 1,1-Dideuterioethanol, 99 atom % D (CDN Isotopes; Quebec, Canada) (70 mL) was diluted to 500 mL with orange juice, and the resulting beverage was consumed by the subject over the course of five minutes. The mouth and palate were rinsed with orange juice, and data points were then obtained, in triplicate, every 10 minutes with a commercial breath analyzer (AlcoHAWK™ Pro, Q3 Innovations Inc., Independence, Iowa, U.S.A.) The control experiment employed 175 mL of commercial vodka (80 proof; 40% ethanol) but was otherwise identical.
Each data point in the FIGURE is the average of the three measurements taken at each time point.

horse liver ALDH = conditions: literature (Feldman and Weiner 1972); cited from earlier work

[2H]C(C)=O [acetaldehyde-1-d]
deuterium isotope effect (sheep liver ALDH): no isotope effect

[2H]C([2H])(C)O [deuterated ethanol, 1,1-Dideuterioethanol]
absorption relative to ethanol having a natural isotopic abundance ([1]; human subject, FIG. 1): substantially retarded | areas under the curves of blood level vs time, deuterated vs ordinary ethanol ([1]; human subject, FIG. 1): substantially equivalent | rate of clearance relative to ethanol having a natural isotopic abundance ([1]; human subject, FIG. 1): reduced | time after ingestion at which peak blood concentrations of ethanol are reached ([1]; human subject, after overnight fast, 70 mL diluted to 500 mL with orange juice): 1 to 2 h | reduction of peak blood concentration ([1]; human subject, relative to non-deuterated ethanol): 15-20%

CCO [ethanol, reference compound]
time after ingestion at which peak blood concentrations of ethanol are reached ([1]; human, ordinary ethanol (normally)): 0.333 to 0.5 h

[2H]C(=O)CC [propionaldehyde-1-d]
deuterium isotope effect (horse liver ALDH): no isotope effect
